The record followed here is patent publication US20240114939A1, “HYDROXY- AND METHOXY-SUBSTITUTED FLAVONES AND THEIR USE” (Firmenich SA, priority 2021, published 2024).

Assay [1] concerns human sensory panel. Nature of the assay: Human sensory panel, sweet taste versus reference water solution containing 4% sucrose. Format: in vivo. The conditions noted are these: 20 trained panelists, scale −5 (strong masking) to 5 (strong enhancing), 0 = reference water solution containing 4% sucrose. The source says: (§1) Certain HMF compounds were tasted by a human sensory panel to assess their ability to reduce bitterness, reduce astringency, and enhance sweetness. The panel consisted of 20 trained panelists evaluating the samples at 1 ppm, 5 ppm, or 10 ppm for taste properties (sweet, bitter, or astringent) on a scale of −5 to 5 (−5 denoted strong masking effect and 5 denoted strong enhancing effect, 0 being the intensity of a reference water solution containing 4% sucrose or 10 ppm mixture of Limonin, Naringin and Nomilin) The results are set forth in Table 2. The composition numberings (“Cpn”) are set forth above in Example 1.

In assay [2] the test system is human sensory panel. Nature of the assay: Human sensory panel, bitter and astringent taste versus reference water solution with 10 ppm mixture of Limonin, Naringin and Nomilin. The following applies: 20 trained panelists, scale −5 (strong masking) to 5 (strong enhancing); for Astringency: 0 = reference water solution; for Bitterness: 0 = reference water solution with 10 ppm mixture of Limonin, Naringin and Nomilin. Format: in vivo.
Source text: as §1

Another assay deals with panel of 8 experts. The assay is described as follows: Expert panel, bitter and astringent taste in coffee. Format: in vivo, human. The conditions noted are these: 10 ppm, scale −5 (strong masking) to 5 (strong enhancing), 0 = reference application in coffee. The text has this: A panel consisted in 8 experts evaluating the samples at 10 ppm for taste properties (bitter and astringent) on a scale of −5 to 5 (−5 denoted strong masking effect and 5 denoted strong enhancing effect, 0 being the intensity of a reference application in coffee).

Take `COc1cc(-c2cc(=O)c3c(OC)c(OC)c(OC)cc3o2)ccc1O` [Cpd 101, 4′-hydroxy-5,6,7,3′-tetramethoxyflavone]: in the assay with human sensory panel [1] (10 ppm), the Sweetness was found to be 0.58. For the same compound, in the assay on human sensory panel [2] (10 ppm), the Astringency is −0.92 and the Bitterness is −0.92.
Take `COc1cc(-c2cc(=O)c3c(OC)c(OC)c(OC)c(OC)c3o2)ccc1O` [Cpd 103, 4′-hydroxy-5,6,7,8,3′-pentamethoxyflavone]: the Sweetness in the assay with human sensory panel [1] (10 ppm) is 0.17. In the assay with human sensory panel [2] (10 ppm), the Astringency was −0.67 and the Bitterness is on record as −1.17.
With `COc1cc2oc(-c3ccc(O)cc3)cc(=O)c2c(OC)c1OC` [Cpd 104, 4′-Hydroxy-5,6,7-trimethoxyflavone], the Sweetness in the assay on human sensory panel [1] (10 ppm) is given as 0.08. Also, in the assay on human sensory panel [2] (10 ppm), the Astringency is −0.33 and the Bitterness is −1.00.
Take `COc1c(OC)c(OC)c2c(=O)cc(-c3ccc(O)cc3)oc2c1OC` [Cpd 106, 4′-hydroxy-5,6,7,8-tetramethoxyflavone]: the Sweetness in the assay with human sensory panel [1] (5 ppm) is recorded as 0.25. Besides, in the assay on human sensory panel [2] (5 ppm), the Astringency is listed as −0.30 and the Bitterness was −2.00.
With `COc1ccc(-c2cc(=O)c3c(OC)c(OC)c(OC)cc3o2)cc1O` [Cpd 107, 3′-hydroxy-5,6,7,4′-tetramethoxyflavone], the Sweetness with human sensory panel [1] (1 ppm) came to 0.50. For the same compound, in the assay with human sensory panel [2] (1 ppm), the Astringency worked out at 0.00 and the Bitterness turned out to be 0.08.
As for `COc1ccc(-c2cc(=O)c3c(OC)c(OC)c(OC)c(OC)c3o2)cc1O` [Cpd 109, 3′-hydroxy-5,6,7,8,4′-pentamethoxyflavone], the Sweetness in the assay on human sensory panel [1] (10 ppm) is given as 0.03. Also, in the assay on panel of 8 experts, the Astringency was determined as 0.60 and the Bitterness was −1.80. In the assay with human sensory panel [2] (10 ppm), the Astringency was −1.80 and the Bitterness was −3.51.
